row,Compound,melting point [°C]
1,Cc1ccc(-c2n[nH]c(N)c2C#N)cc1,173 to 178
2,OCc1ccc(-c2ccc(-c3ccsc3)s2)s1,158 to 160
3,C=CCCc1ccc(C=NN=Cc2ccc(CCC=C)cc2)cc1,57
4,CN(Cc1ccc(NC(=O)C2=Cc3cc(-c4ccc(Cl)cc4)ccc3S(=O)(=O)CC2)cc1)C1CCOCC1,247 to 250
5,O=c1nc(-c2ccccn2)sc2ncccc12,235
6,COc1ccc(C(=O)NCCCCCCCCCNC(=O)c2ccc(OC)cc2)cc1,156 to 157
7,CN1CCN(C2=Nc3cc(C(F)(F)F)ccc3N3CCc4cccc2c43)CC1,177 to 180
8,C=C(C)COC1CC2C3CCC4=CC(=O)C=CC4(C)C3(F)C(O)CC2(C)C1(O)C(=O)CCl (stereo not drawn),238 to 240
9,Cn1cc(-c2cccc(F)c2)c(=O)c(-c2cccc(F)c2)c1,149 to 151
10,O=C(O)c1c[nH]c2oc3ccccc3c(=O)c2c1=O,335 to 340
11,OCc1cc2c3ccccc3n(Cc3ccccc3)c2cn1,120 to 122
12,O=C(Cn1cccn1)c1ccc(F)cc1F,76.4
13,CCCCCCCCCCOc1ccc(-c2c(C)[nH]c(=O)n2C2CCCCC2)cc1,137 to 138
14,N#Cc1sc2c(Cl)cccc2c1Cl,124 to 128
15,CS(=O)(=O)O[C@@H](CO)[C@H](Cc1ccccc1)NC(=O)OCc1ccccc1,121 to 122
16,CC(CO)Oc1ccc(CNc2ccc(Cl)cc2)cc1 (stereo not drawn),81 to 83
17,N#Cc1ccc(-c2cn(-c3ccc(Br)cc3)c(C(=O)O)c2C(=O)O)cc1,217 to 221
18,O=C(c1ccccc1)C(Cl)Cn1cnc(Cl)c1 (stereo not drawn),106 to 110
19,Cc1c(-c2cccc(C(F)(F)F)c2F)c2cccc(Cl)c2n1CCCNS(C)(=O)=O,168
20,Cc1cc(Br)cnc1CCCCN,35 to 37

row,Compound,melting point [°C]
1,Cc1cc(-c2cc(C(F)(F)F)nc(-n3cnc(-c4cccc(S(N)(=O)=O)c4)c3)n2)ccc1C(F)(F)F,180
2,COc1ccccc1CNc1ccc2cc(Nc3ncco3)ccc2n1,205
3,Cc1c(CCC(=O)O)ccc2c3ccccc3n(Cc3ccccc3)c12,160 to 162
4,CCn1nnnc1Cc1ccc(N)cc1,94 to 95
5,COc1cc(CN(C)CCCOc2ccc(NC(=O)c3cccc4c(=O)c5cccc(OC)c5[nH]c34)cc2)cc(OC)c1OC,186
6,Clc1cnc2cnc(Cl)nc2c1,177 to 178
7,CN(Cc1cc2c3c(c1)c(=O)c(C(=O)NCc1ccc(F)cc1)cn3CC(=O)N2C)C[C@@H](O)c1ccsc1,150 to 152
8,CC(C)C[C@@H](CO)NC(=O)N1C(=O)C(OC(=O)N2CCN(c3ccncc3)CC2)(c2ccccc2OC(C)C)c2cc(Cl)ccc21 (stereo partly drawn),160 to 164
9,NS(=O)(=O)c1cc(C(=O)OCC(=O)N[C@@H](CCO[N+](=O)[O-])CO[N+](=O)[O-])c(NCc2ccco2)cc1Cl,93 to 95
10,O=c1[nH]c2ccc([C@H]3CC[C@H](N(CCCc4ccc(F)cc4)Cc4ccoc4)CC3)cc2o1,225 to 227
11,O=C(O)CC(=O)N(c1ccccc1)c1ccccc1,126 to 127
12,N#Cc1cnc2cc(-c3ccc(CCN4CCOCC4)s3)ccc2c1Nc1ccc(Cl)cc1Cl,168 to 169
13,CNC#CCC1=Cc2ccccc2Sc2ccc(Cl)cc21,92 to 94
14,CCn1c(-c2ccc(F)cc2)c(OCCOc2ccc(C(C)=C3SC(=O)NC3=O)cc2)c(=O)c2ccccc21,214 to 216
15,O=C(O)C1Oc2ccc(Cl)cc2C(C2CCCCC2)(C2CCCCC2)O1 (stereo not drawn),208
16,CCOC(=O)c1cn(Cc2ccccc2)nc1OCc1ccc(OCc2nc(-c3ccco3)oc2C)c(Cl)c1,153 to 154
17,CC1(C)[C@@H]2CC3[C@H](C(=O)O)[C@@]3(C)C[C@@H]21 (stereo partly drawn),86
18,O=C(O)COc1cccc2c1Cc1sc(SCc3ccccc3)nc1-2,166 to 169
19,O=C(Nc1ccccc1)O[C@@H]1CN=C(c2ccc(NC(=O)C(F)(F)F)cc2)O[C@H]1c1ccccc1 (racemic),210
20,Nc1cc(F)ccc1Nc1ccccc1,83 to 84

row,Compound,melting point [°C]
1,O=[N+]([O-])c1ccc(Sc2cc(Cl)cc(Cl)c2)c(S(=O)(=O)NC2CN3CCC2CC3)c1 (stereo not drawn),256
2,CCCCCCCCCCCCCC=C1CC(CO)(COC(C)=O)OC1=O (racemic),58 to 59
3,Cn1cc(C(=O)C(=O)Oc2c(F)c(F)c(F)c(F)c2F)c2ccccc21,168 to 169
4,O=C(CCCl)c1ccc2[nH]c3ccccc3c2c1,148 to 151
5,CCCn1nc2c(N)nc3ccccc3c2c1CC(C)C,199 to 200
6,Nc1nc2c(s1)CCN(CC=Cc1ccccc1Br)CC2,103 to 106
7,N#CCCNc1ccc(CCCN2CCN(c3ccccc3)CC2)cc1,141 to 143
8,CCc1ccccc1-n1ncc(C#N)c1N,130
9,CO[C@@H](C(=O)N[C@H]1CC[C@@H](OC(=O)CCc2ccccc2)CNC1=O)[C@H](O)[C@@H](O)[C@H](O)/C=C/C(C)(C)C,75 to 77
10,CC(=O)OCC1c2ccccc2-c2c1c1ccccc1c1ccccc21 (stereo not drawn),135 to 136
11,Cc1cccc2c1Sc1ccccc1N2,115
12,CC(=O)N1CC(CCN2CC=C(c3ccccc3)CC2)c2cc3c(cc21)OCO3 (stereo not drawn),90 to 91
13,O=C(NCCCCCCO)OCc1ccccc1,67 to 68
14,CCc1nnc(-c2ccc([N+](=O)[O-])cc2)n1-c1ccc(OC)cc1,174
15,COc1ccc(S(=O)(=O)Nc2ccc(CCCC(=O)O)nc2)cc1,129 to 130
16,C[C@]1(COc2ccc(N3CCC(Cc4cccc(OC(F)(F)F)c4)CC3)cc2)Cn2cc([N+](=O)[O-])nc2O1,187 to 190
17,COC(=O)C1(C)c2ccccc2Oc2ccccc21,91 to 92
18,N#Cc1cc(F)cc(C#N)c1,98 to 100

# Results, then the compound that gave them:
row,melting point [°C],Compound
1,98 to 100,CCOCC1(O)c2ccccc2CCc2cc(OC)c(OC)cc21 (stereo not drawn)
2,140 to 141,COC(=O)c1cncn1C1c2ccccc2C(OC)(OC)C1(C)C (stereo not drawn)
3,250 to 251,CCn1cc(C(=O)O)c(=O)c2cc(F)c(C(C)=O)c(F)c21
4,55 to 56,CCN(CC)C(=O)n1nc(C(C)(C)C)cc1SC
5,126 to 128,Cn1cc(Br)cc(Nc2cc3c(cn2)CCN(C(=O)OC(C)(C)C)C3)c1=O
6,265 to 268,COc1cc(O)c2c(=O)c3c(oc2c1)oc1cc(O)ccc13
7,161 to 162,CC(C)c1ccc2c(c1)C(C(=O)O)c1ccccc1CO2 (stereo not drawn)
8,288 to 289,COC1(c2ccccc2)CCc2c(C(=O)O)cc3c(nc(C)n3C)c2O1 (stereo not drawn)
9,184 to 186,CC(C)(C(=O)O)c1nc2ccc(NCCCN3CCN(C(c4ccccc4)c4ccccc4)CC3)nn2c1Cl
10,88 to 90,CC(C)(NC(=O)C(COCc1ccccc1)NC(=O)c1ccccc1)c1ccccc1 (stereo not drawn)
11,203 to 207,CNC(=S)C1c2cc([N+](=O)[O-])ccc2OC(C)(C)C1O (stereo not drawn)
12,68 to 70,CC(C)(O)c1ccc(CNC(=O)c2cccnc2Oc2cc(F)cc(F)c2)cc1
13,278,COc1cccc(-c2c3cccc(OC(C)=O)c3c(OC(C)=O)c3c(OC(C)=O)cccc23)c1
14,139 to 141,CC(C)c1cc([N+](=O)[O-])c(O)c(C(C)C)c1NC(=O)CN1CCN(CCSc2nc3ccccc3o2)CC1
15,167 to 168,COCOc1ccccc1-c1cc(-c2cccc(C(=O)NC3CCCN(C(=O)OC(C)(C)C)C3)c2)c(C#N)c(NC(=O)c2cccs2)n1 (stereo not drawn)
16,191 to 195,CN(C)CCNc1nc(Nc2cccc(NS(C)(=O)=O)c2)nc2[nH]cnc12
17,152 to 153,COc1ccc(Nc2ccc3cc(O)ccc3c2)cc1
18,62.5 to 63.5,COc1ccc(C(=O)c2cccc(C(F)(F)F)c2)cc1
19,116 to 118,CCOC(=O)c1ccc(-c2ccc(-c3cccc(OC)c3)c(-c3ccc4c(c3)C(C)(C)CCC4(C)C)c2)cc1
20,190 to 191,CCC(Oc1ccc(C(C)(C)CC)cc1C(C)(C)CC)C(=O)Nc1cc(O)c(NC(=O)c2ccccc2)cc1Cl (stereo not drawn)

row,melting point [°C],Compound
1,63 to 64,COCCOc1ccc(C=NOC)cc1O
2,116,C=C(C)C(=O)Oc1ccc2c(c1)CCc1cc(OC(=O)C(=C)C)ccc1-2
3,95 to 96,CCOC(=O)Nc1ccc(OC)c(OC)c1C1OCCO1
4,128 to 130,CC(C)(C)SC(=S)c1cc(C(C)(C)C)c(O)c(C(C)(C)C)c1
5,153 to 155,CC(C)(C)c1nc2cc(N3CCN(S(C)(=O)=O)CC3)c(N)cc2s1
6,212,CC(C)(C)OC(=O)CCNC(=O)c1cccc(NC(=O)c2csc(NC(=O)NCc3ccccc3)n2)c1
7,185,COc1ccc2c(c1)Sc1c(cc(OC)c(O)c1Br)N2
8,269 to 271,CC(C)(O)Cn1cnc2c(N)nc3cc(CCS(C)(=O)=O)ccc3c21
9,98 to 99,N#CCC(=O)c1cc(F)c(Cl)cc1Cl
10,94 to 96,CC(C)(C)OC(=O)N(C(=O)OC(C)(C)C)c1cnc(-c2cncc(F)c2)s1
11,290 to 291,CC(C)Cn1c(=O)[nH]c2ncc(-c3ccc(O)cc3)nc21
12,176 to 190,CCCCC(CC(=O)Nc1cc(C(N)=O)ccc1C(C)(C)C)c1cc(Cl)c(OCCCOC)cc1OC (stereo not drawn)
13,173 to 175,CCOc1ccc2[nH]c3c(c2c1)C[C@@](C)(C(=O)OC)N[C@@H]3c1cccc(O)c1 (racemic)
14,133 to 135,CCCC(O)(CCC)c1ccc(Cl)c2nc3n(c12)CCCN3c1ccc(Cl)cc1Cl
15,119 to 120,O=C(O)C1CCCc2cc(C3CCCCC3)c(Cl)cc21 (stereo not drawn)
16,115 to 117,CSc1nc2ccc3c(c2o1)C(CCNC(C)=O)CC3 (stereo not drawn)
17,243,O=C(O)CCC(=O)c1ccc2[nH]c3ncc(Cl)cc3c2c1
18,284 to 288,Cc1cc(C)c2ncn(/C=C/C(=O)O)c(=O)c2c1
19,65,CCC(=Cc1ccccc1)C1=CC=C2C(C1)C(C)(C)CCC2(C)C (stereo not drawn)
20,139 to 141,CC(C)(C)n1nnc(Cc2ccc(CCC(=O)O)cc2)n1

# Source: a melting point compilation (Tetko et al.; mined from patent text by program, amines drawn as free bases though some values may be those of a salt)
